Results as given in patent US20250186445A1, “TREATMENT OF CANCER WITH MENIN INHIBITORS AND IMMUNO-ONCOLOGY AGENTS” (University Health Network, priority 2022, published 2025).
Entries after “also recorded” stand apart in the source; their conditions may differ.

Experiments:
CT26 cells = assay: Cytokine gene expression in CT26 cells in 2D culture treated with Compound I; format: cell-based, mouse; conditions: FIG. 5A
MC38 cells = assay: Cytokine gene expression in MC38 cells in 2D culture treated with Compound I; format: cell-based; conditions: FIG. 5B
[1] = test system: CT26 colorectal carcinomas; assay: CT26 colorectal carcinoma tumor growth in immunocompetent (BALB/c) mice; format: in vivo, mouse
Description: Effects of Compound I in combination with PD-L1/PD-1 immune checkpoint blockade on tumor growth were investigated in CT26 tumors.

## CNc1nc(NC2CCN(Cc3ccc4c(cc(C#N)n4C[C@H](C)N4CCN(S(C)(=O)=O)CC4)c3C)CC2)c2cc(CC(F)(F)F)sc2n1 [Compound I]
CT26 cells
  induction of cytokine-related genes (IL33, CXCL10, CXCL9, CD40, CCL4): Dose-dependent induction; also recorded: induces cytokine gene expression
MC38 cells
  cytokine gene expression: induces cytokine gene expression
[1]; BALB/c mice bearing CT26, 100 mg/kg orally QD, FIG. 6A
  tumor growth: reduced tumor growth
[1]; CT26 tumors in BALB/c mice, FIGS. 6B-C
  CD8+ T-cell infiltration: increased CD8+ T-cell infiltration
[1]; CT26 tumors in BALB/c mice, concomitant anti-CD8 antibody, FIG. 6D
  reduction in tumor growth with concomitant anti-CD8 antibody: could be blocked
[1]; CT26 tumors, combination with anti-PD-1 antibody, FIG. 7
  CT26 tumor growth, combination of Compound I and anti-PD-1 antibody: the combination enhanced the activity of anti-PD1 immunotherapy
[1]; CT26 tumors, each agent alone, FIG. 7
  CT26 tumor growth, single agent: substantially reduced
